Test system: TDI-induced dermatitis in BALB/c mice
Test: toluene-2,4-diisocyanate (TDI) induced dermatitis model, topical treatment of the ear
Format: in vivo, female BALB/c mice
Conditions: for inhibition of various parameters: standard reference compounds, dose not stated
Procedure: The sensitization protocol was as per W. Baumer et al., J Pharm Pharmacol., 55(8):1107-14 (2003). The abdominal region was shaved and depilated using Veet. Subsequently, the horny layers were stripped 10 times with adhesive tape. For active sensitization, 100 μl of 5% TDI was applied to the stripped skin for 3 consecutive days.
Prescreening was performed 21 days later. In brief, the sensitized mice were challenged with an application of 10 μl of 0.5% TDI on both the inner and outer surface of the left ear, the right ear served as control in each mouse. Ear thickness was measured with a cutimeter (Model7309, Mitutoyo Japan) prior to challenge and 24 hours after challenge. […] Animals were rested for 7 days after prescreening, to allow for the ear thickness to return to normal.
Five groups (A-E) were studied.
On day 28, test compounds. GRC-CPD-A (0.3, 3 and 10%) were prepared using DMSO and acetone in the ratio of 1:9 as solvents. 20 μl (10 μl on each side of the ear) of the formulation was applied to the left ear of each mouse as per the study design 6 hours prior to challenge with TDI. 20 μl of TDI was applied to both inner and outer surface of the left ear of each mouse. The right ear served as control and received an application of 10 μl of acetone on each side. 24 hours post TDI challenge ear thickness was determined and ears were collected for histology and eosinophil peroxidase (EPO) determination. Ear sections were processed for histology and stained with hematoxylin-eosin (HE) and lesions were scored as follows: 0=no cell infiltration or edema, 1-4-granulocyte infiltration/oedema depending on severity. A combined congo-red-toluidine blue staining was also carried out to identify eosinophils which were then quantified per 12 high power fields (hpf). EPO levels in ear sections were determined by standard […] assay using […] as substrate.
All data were expressed as mean±SEM. All groups were subjected to one-way ANOVA and means were compared using Dunnett's post hoc test using GraphPad prism software.

[1] = conclusion, in a dose dependent manner (0.3, 3 and 10% topical)

C[C@]12CCC(=O)C=C1CC[C@@H]1[C@@H]2[C@@H](O)C[C@@]2(C)[C@H]1CC[C@]2(O)C(=O)CO [hydrocortisone, reference compound] was tested, and the “inhibition of various parameters” value was “significant inhibition”.
With C=CC[C@@H]1/C=C(\C)C[C@H](C)C[C@H](OC)[C@H]2O[C@@](O)(C(=O)C(=O)N3CCCC[C@H]3C(=O)O[C@H](/C(C)=C/[C@@H]3CC[C@@H](O)[C@H](OC)C3)[C@H](C)[C@@H](O)CC1=O)[C@H](C)C[C@@H]2OC [tacrolimus, reference compound] the “inhibition of various parameters” value was “significant inhibition”.
CC(C)(C)NC(=O)c1nn(-c2ccc(F)cc2F)c2c1[C@H]1CC[C@@H]2C1 [GRC-CPD-A, (1R,7S)—N5-(tert-butyl)-3-(2,4-difluorophenyl)-3,4-diazatricylco[5.2.1.0^2,6]deca-2(6),4-diene-5-carboxamide] was tested, and the EPO levels [1] was “effectively inhibits”, the “ear swelling (oedema and eosinophil infiltration)” value [1] was “effectively inhibits” and the “inhibition of ear swelling” value (topical application of 10%, 6 hours prior to TDI challenge, ear thickness 24 hours post TDI challenge, FIG. 1) was “significant (p<0.001) dose-dependent inhibition”. For the same molecule, the histological scores (topical application of 10%, HE-stained ear sections, lesion score 0-4, 24 hours post TDI challenge, FIG. 2) was “improved”, the “EPO levels in the ear” value (topical application of 10%, eosinophil peroxidase in ear sections, 24 hours post TDI challenge, FIG. 4) was “inhibited” and the eosinophil infiltration (topical application of 10%, eosinophils per 12 hpf in ear sections, 24 hours post TDI challenge, FIG. 3) was “inhibited”.

From patent publication US20090312385A1, “CANNABINOID RECEPTOR MODULATORS FOR TREATING NON-IMMEDIATE TYPE ALLERGIC DISEASES” (Glenmark Pharmaceuticals, S.A., priority 2007, published 2009)
